Reference: PubChem BioAssay (NCI)
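A five-concentration, 48-hour dose response in 96-well plates underlies each endpoint, interpolated linearly between surrounding concentrations. Here, GI50 denotes the concentration required for 50% inhibition of growth. Definition used: TGI = concentration required for complete inhibition of growth.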

Key:
Test in all cases: NCI anticancer screen, dose series, 48 h
DU-145 prostate = tested on: DU-145 prostate
EKVX NSCLC = tested on: EKVX NSCLC
HOP-92 NSCLC = tested on: HOP-92 NSCLC
HT29 colon = tested on: HT29 colon
NCI-H23 lung = tested on: NCI-H23 lung
NCI-H522 lung = tested on: NCI-H522 lung
RXF 393 renal = tested on: RXF 393 renal
SR leukemia = tested on: SR leukemia
T-47D breast = tested on: T-47D breast
U251 CNS = tested on: U251 CNS

Fc1cc2[nH]ncc2c2c3c(c(-c4cn[nH]c4)nc12)CCCC3
GI50 (DU-145 prostate): 1.09 µM
TGI (DU-145 prostate): 15.5 µM
GI50 (EKVX NSCLC): 0.795 µM
TGI (EKVX NSCLC): 3.98 µM
GI50 (HOP-92 NSCLC): 1.48 µM
TGI (HOP-92 NSCLC): 5.66 µM
GI50 (HT29 colon): 1.24 µM
TGI (HT29 colon): > 100 µM
GI50 (NCI-H23 lung): 0.958 µM
TGI (NCI-H23 lung): 4.69 µM
GI50 (NCI-H522 lung): 0.829 µM
TGI (NCI-H522 lung): 6.12 µM
GI50 (RXF 393 renal): 0.275 µM
TGI (RXF 393 renal): 1.27 µM
GI50 (SR leukemia): 0.355 µM
TGI (SR leukemia): > 100 µM
GI50 (T-47D breast): 1.26 µM
TGI (T-47D breast): > 21.5 µM
GI50 (U251 CNS): 0.55 µM
TGI (U251 CNS): 13.4 µM

Cc1cc2c(cc1Cl)SC(N(N(C)C)S(=O)(=O)c1ccc(Cl)cc1)=NS2(=O)=O
GI50 (DU-145 prostate): 27.8 µM
TGI (DU-145 prostate): 99.4 µM
GI50 (EKVX NSCLC): 26.6 µM
TGI (EKVX NSCLC): 79.6 µM
GI50 (HOP-92 NSCLC): 14.8 µM
TGI (HOP-92 NSCLC): 35.3 µM
GI50 (HT29 colon): 27.1 µM
TGI (HT29 colon): 99.2 µM
GI50 (NCI-H23 lung): 31.2 µM
TGI (NCI-H23 lung): > 100 µM
GI50 (NCI-H522 lung): 11.1 µM
TGI (NCI-H522 lung): 43.9 µM
GI50 (RXF 393 renal): 31.3 µM
TGI (RXF 393 renal): > 100 µM
GI50 (SR leukemia): 23.3 µM
TGI (SR leukemia): 91.7 µM
GI50 (T-47D breast): 15.8 µM
TGI (T-47D breast): > 100 µM
GI50 (U251 CNS): 26.3 µM
TGI (U251 CNS): > 100 µM

C=C(Br)C(C)(Br)CCC(Br)C(C)(C)Cl (stereo not given)
TGI (DU-145 prostate): 43.1 µM
TGI (EKVX NSCLC): 51.3 µM
TGI (HOP-92 NSCLC): 30.2 µM
TGI (HT29 colon): 40.7 µM
TGI (NCI-H23 lung): 36.5 µM
TGI (NCI-H522 lung): 20.4 µM
TGI (RXF 393 renal): 37.5 µM
TGI (SR leukemia): 27.9 µM
TGI (T-47D breast): 44.1 µM
TGI (U251 CNS): 29.7 µM

O=C(CCc1nnc2sc(-c3ccc(Cl)cc3Cl)nn12)c1nc2ncccc2[nH]1
GI50 (DU-145 prostate): 1.92 µM
TGI (DU-145 prostate): 3.63 µM
GI50 (EKVX NSCLC): 2.71 µM
TGI (EKVX NSCLC): 7.98 µM
GI50 (HOP-92 NSCLC): 1.19 µM
TGI (HOP-92 NSCLC): 2.6 µM
GI50 (HT29 colon): 2.93 µM
TGI (HT29 colon): 11.8 µM
GI50 (NCI-H23 lung): 1.76 µM
TGI (NCI-H23 lung): 4.41 µM
GI50 (NCI-H522 lung): 1.9 µM
TGI (NCI-H522 lung): 4.49 µM
GI50 (RXF 393 renal): 1.8 µM
TGI (RXF 393 renal): 3.34 µM
GI50 (SR leukemia): 1.9 µM
TGI (SR leukemia): > 100 µM
GI50 (T-47D breast): 1.47 µM
TGI (T-47D breast): 5.03 µM
GI50 (U251 CNS): 1.92 µM
TGI (U251 CNS): 3.67 µM

Cc1cc(O)c(/C=N/C(=S)NCc2ccccc2)c(=O)o1
TGI (DU-145 prostate): > 100 µM
TGI (EKVX NSCLC): > 100 µM
TGI (HOP-92 NSCLC): > 100 µM
TGI (HT29 colon): > 100 µM
TGI (NCI-H23 lung): > 100 µM
TGI (NCI-H522 lung): > 100 µM
TGI (RXF 393 renal): > 100 µM
TGI (SR leukemia): > 100 µM
TGI (T-47D breast): > 100 µM
TGI (U251 CNS): > 100 µM

NC1(C(=O)OCc2ccccc2)CCCC1
TGI (DU-145 prostate): 37.5 µM
TGI (EKVX NSCLC): 59.3 µM
TGI (HOP-92 NSCLC): 38.4 µM
TGI (HT29 colon): > 100 µM
TGI (NCI-H23 lung): 43.6 µM
TGI (NCI-H522 lung): 42.6 µM
TGI (RXF 393 renal): 33.7 µM
TGI (SR leukemia): > 100 µM
TGI (T-47D breast): > 100 µM
TGI (U251 CNS): 40.3 µM

CC(=O)OC1=CC(n2cc(F)c(=O)[nH]c2=O)OC(C)C1=O (stereo not given)
TGI (DU-145 prostate): > 100 µM
TGI (EKVX NSCLC): > 100 µM
TGI (HOP-92 NSCLC): > 100 µM
TGI (HT29 colon): > 100 µM
TGI (NCI-H23 lung): > 100 µM
TGI (NCI-H522 lung): > 100 µM
TGI (RXF 393 renal): > 100 µM
TGI (SR leukemia): > 100 µM
TGI (T-47D breast): > 100 µM
TGI (U251 CNS): > 100 µM

COc1ccc(/C=C(/C#N)n2nnc3cccc(F)c32)cc1
GI50 (DU-145 prostate): 1.36 µM
TGI (DU-145 prostate): 4.67 µM
GI50 (EKVX NSCLC): 2.37 µM
TGI (EKVX NSCLC): > 100 µM
GI50 (HOP-92 NSCLC): 0.546 µM
TGI (HOP-92 NSCLC): 3.23 µM
GI50 (HT29 colon): 0.41 µM
TGI (HT29 colon): > 100 µM
GI50 (NCI-H23 lung): 1.23 µM
TGI (NCI-H23 lung): 6.3 µM
GI50 (NCI-H522 lung): 0.301 µM
TGI (NCI-H522 lung): > 100 µM
GI50 (RXF 393 renal): 1.3 µM
TGI (RXF 393 renal): 6.37 µM
GI50 (SR leukemia): 0.48 µM
TGI (SR leukemia): > 100 µM
GI50 (T-47D breast): 0.503 µM
TGI (T-47D breast): > 100 µM
GI50 (U251 CNS): 1.79 µM
TGI (U251 CNS): > 100 µM

COc1c(Cl)c(=O)oc2ccc(Cl)cc12
TGI (DU-145 prostate): > 100 µM
TGI (EKVX NSCLC): > 100 µM
TGI (HOP-92 NSCLC): > 100 µM
TGI (HT29 colon): > 100 µM
TGI (NCI-H23 lung): > 100 µM
TGI (NCI-H522 lung): > 100 µM
TGI (RXF 393 renal): > 100 µM
TGI (SR leukemia): > 100 µM
TGI (T-47D breast): > 100 µM
TGI (U251 CNS): > 100 µM

NS(=O)(=O)c1cc(Br)c(N=Nc2ccc(O)c3ncccc23)c(Br)c1
TGI (DU-145 prostate): > 100 µM
TGI (EKVX NSCLC): > 100 µM
TGI (HOP-92 NSCLC): > 100 µM
TGI (HT29 colon): > 100 µM
TGI (NCI-H23 lung): > 100 µM
TGI (NCI-H522 lung): > 100 µM
TGI (RXF 393 renal): > 100 µM
TGI (SR leukemia): > 100 µM
TGI (T-47D breast): 98.8 µM
TGI (U251 CNS): > 100 µM

CC[C@H](Nc1ncnc2nc[nH]c12)c1oc2ccccc2c(=O)c1-c1cccc(F)c1
GI50 (DU-145 prostate): 26.9 µM
TGI (DU-145 prostate): > 100 µM
GI50 (EKVX NSCLC): 31.8 µM
TGI (EKVX NSCLC): > 100 µM
GI50 (HOP-92 NSCLC): 4.99 µM
TGI (HOP-92 NSCLC): 63.7 µM
GI50 (HT29 colon): 28.3 µM
TGI (HT29 colon): > 100 µM
GI50 (NCI-H23 lung): 29.7 µM
TGI (NCI-H23 lung): > 100 µM
GI50 (NCI-H522 lung): 19.7 µM
TGI (NCI-H522 lung): > 100 µM
GI50 (RXF 393 renal): 13.2 µM
TGI (RXF 393 renal): 78.2 µM
GI50 (SR leukemia): 11.5 µM
TGI (SR leukemia): 50 µM
GI50 (T-47D breast): 8.24 µM
TGI (T-47D breast): > 100 µM
GI50 (U251 CNS): 32.2 µM
TGI (U251 CNS): > 100 µM

CSc1nc(NC2OCC(OC(C)=O)C(OC(C)=O)C2OC(C)=O)c(N=CC=Nc2c(NC3OCC(OC(C)=O)C(OC(C)=O)C3OC(C)=O)nc(SC)[nH]c2=O)c(=O)[nH]1 (stereo not given)
TGI (DU-145 prostate): > 100 µM
TGI (EKVX NSCLC): > 100 µM
TGI (HOP-92 NSCLC): > 100 µM
TGI (HT29 colon): > 100 µM
TGI (NCI-H23 lung): > 100 µM
TGI (NCI-H522 lung): > 83.8 µM
TGI (RXF 393 renal): 53 µM
TGI (SR leukemia): > 100 µM
TGI (T-47D breast): > 100 µM
TGI (U251 CNS): > 100 µM

COc1cc2c(c(OC)c1OC)-c1ccc(OC)c(=O)cc1C(NC(=O)c1ccc(N=[N+]=[N-])cc1)CC2 (stereo not given)
TGI (DU-145 prostate): 0.439 µM
TGI (EKVX NSCLC): > 100 µM
TGI (HOP-92 NSCLC): 18.9 µM
TGI (HT29 colon): 0.208 µM
TGI (NCI-H23 lung): > 100 µM
TGI (NCI-H522 lung): 0.0387 µM
TGI (RXF 393 renal): 0.061 µM
TGI (SR leukemia): > 100 µM
TGI (T-47D breast): > 100 µM
TGI (U251 CNS): 4 µM

O=C1NCC2(CCN(CCCC3(c4ccc(F)cc4)OCCO3)CC2)N1c1ccccc1
TGI (DU-145 prostate): > 100 µM
TGI (EKVX NSCLC): > 100 µM
TGI (HOP-92 NSCLC): > 100 µM
TGI (HT29 colon): > 100 µM
TGI (NCI-H23 lung): > 100 µM
TGI (NCI-H522 lung): > 100 µM
TGI (RXF 393 renal): > 100 µM
TGI (SR leukemia): > 100 µM
TGI (T-47D breast): > 100 µM
TGI (U251 CNS): > 100 µM

Nc1ncnc2n[nH]c(Nc3ccc(F)cc3)c12
GI50 (DU-145 prostate): 9.33 µM
TGI (DU-145 prostate): 42.1 µM
GI50 (EKVX NSCLC): 33.6 µM
TGI (EKVX NSCLC): > 100 µM
GI50 (HOP-92 NSCLC): 12 µM
TGI (HOP-92 NSCLC): 87.4 µM
GI50 (HT29 colon): 25.3 µM
TGI (HT29 colon): > 100 µM
GI50 (NCI-H23 lung): 67.8 µM
TGI (NCI-H23 lung): > 100 µM
GI50 (NCI-H522 lung): 29.8 µM
TGI (NCI-H522 lung): > 100 µM
GI50 (RXF 393 renal): 13.6 µM
TGI (RXF 393 renal): > 100 µM
GI50 (SR leukemia): 13.3 µM
TGI (SR leukemia): 94.6 µM
GI50 (T-47D breast): 21.1 µM
TGI (T-47D breast): > 100 µM
GI50 (U251 CNS): 28.6 µM
TGI (U251 CNS): > 100 µM
